The term IC50 denotes the point on the concentration scale where inhibition reaches its midpoint.

The structures appear in SMILES notation.

This is an account of results in ChEMBL document CHEMBL3886685, “Nitrogen-containing bicyclic aromatic heterocyclic compound” (2016).

The target of the assay is Cathepsin S (Homo sapiens, UniProt P25774). Kind of assay: Inhibition Assay: 5 μL of a human cathepsin S enzyme (R&D1183-CY-010) was added to a 96-well plate so as to be 20 ng/well. Next, 10-fold dilution of the test compound (a 10 mM DMSO solution) was serially performed with a buffer solution for assay (a solution of 50 mM sodium methoxide, 250 mM sodium chloride and 5 mM dithiothreitol (DTT), adjusted to pH=4.5 with 1 N hydrochloric acid) six times such that the final concentration becomes 0.1 nM to 10 μM then, 20 μL of each of the solutions was added to the wells (the final DMSO concentration was 0.1%), and 25 μL of synthetic substrate VVR-AMC (3211-V manufactured by PEPTIDE […], INC.) was added thereto such that the final concentration becomes 40 μM, thereby starting a enzyme reaction. A fluorescence intensity (an excitation wavelength: 380 nm and a fluorescent wavelength: 460 nm) was measured at 37° C. for 10 minutes immediately after the start of the reaction using a fluorescence spectrophotometer (SPECTRA MAX GEMINI, manu.
Chain of Cathepsin S (P25774 whole entry): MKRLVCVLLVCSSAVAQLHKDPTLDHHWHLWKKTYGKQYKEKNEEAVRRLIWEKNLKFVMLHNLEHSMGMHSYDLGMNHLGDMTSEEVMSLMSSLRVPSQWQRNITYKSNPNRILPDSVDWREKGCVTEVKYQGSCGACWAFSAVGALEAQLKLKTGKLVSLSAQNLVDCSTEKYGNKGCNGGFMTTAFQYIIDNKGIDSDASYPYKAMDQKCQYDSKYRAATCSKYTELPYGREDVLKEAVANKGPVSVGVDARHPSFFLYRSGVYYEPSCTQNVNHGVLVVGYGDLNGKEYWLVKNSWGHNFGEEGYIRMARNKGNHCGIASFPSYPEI

In turn, `CCN1CCC(CCOc2ccc(-c3nc(C#N)nc4c3ccn4C3COC3)cc2C(F)(F)F)CC1` showed an IC50 of 2.9 nM. Next, `Cn1cnc2c(-c3cc(F)c(OCCC4CCNCC4)c(C(F)(F)F)c3)nc(C#N)nc21`: 1.9 nM; `Cn1ccc2c(-c3ccc(OCC4CNC4)c(C(F)(F)F)c3)nc(C#N)nc21`: 4.5 nM; `CN1CCC[C@H]1C(=O)N1CC(COc2ccc(-c3nc(C#N)nc4c3ccn4C)cc2C(F)(F)F)C1`: 2.1 nM. Next, `CCN1CCC(CCOc2ccc(-c3nc(C#N)nc4c3ccn4CC3CCOC3)cc2C#N)CC1` (stereo not drawn): 2.7 nM.

For `N#Cc1nc(-c2cnc(OCCC3CCNCC3)c(C(F)(F)F)c2)c2ccn(CC(=O)N3CCOCC3)c2n1`, the half-maximal inhibitory concentration (IC50) was found to be 3.1 nM.

As to `CCN1CC(COc2ccc(-c3nc(C#N)nc4c3ccn4C)cc2C(F)(F)F)C1`, the IC50 amounted to 3.1 nM. Molecule `CCN1CCC(C)(COc2ccc(-c3nc(C#N)nc4c3ccn4C)cc2C(F)(F)F)CC1` yielded an IC50 of 3.8 nM.

The molecule `N#Cc1nc(-c2ccc(OCCC3CCOCC3)c(C(F)(F)F)c2)c2ccn(CC(=O)N3CCC(CN4CCCC4)CC3)c2n1` had an IC50 of 2.5 nM.

As for `CN1CCC(C(=O)N2CCC(CCOc3ccc(-c4nc(C#N)nc5c4ncn5C)cc3C(F)(F)F)CC2)C1` (stereo not drawn), inhibition was half-maximal at 2.3 nM (IC50). Next, `CN1C[C@@H](O)C[C@H]1C(=O)N1CCC(CCOc2ccc(-c3nc(C#N)nc4c3ncn4C)cc2C(F)(F)F)CC1`: 2.3 nM. The figure for `CCN1CCCC(COc2ccc(-c3nc(C#N)nc4c3ccn4C)cc2C(F)(F)F)C1` (stereo not drawn) is 3 nM. The figure for `Cn1ccc2c(-c3cnc(OCC4CCN(C(=O)C5CCN(CC(C)(C)O)CC5)CC4)c(C(F)(F)F)c3)nc(C#N)nc21` is 2.1 nM; for `CCN1CCC(CCOc2ncc(-c3nc(C#N)nc4c3ccn4CC(=O)N3CCOCC3)cc2C(F)(F)F)CC1` it is 2.4 nM; for `CCN1CCC(OCCOc2ccc(-c3nc(C#N)nc4c3ccn4C)cc2C(F)(F)F)CC1` it is 2 nM. As for `CN1CCC[C@H]1C(=O)N1CCC(CCOc2ccc(-c3nc(C#N)nc4c3ccn4C)cc2C(F)(F)F)C1` (stereo partly drawn), inhibition was half-maximal at 2.3 nM (IC50). Molecule `CCN1CCC(CCOc2ccc(-c3nc(C#N)nc4c3ccn4CC(N)=O)cc2C(F)(F)F)CC1` had an IC50 of 2 nM. Next, `CN1CCC[C@H]1C(=O)N1CCC(CCOc2ccc(-c3nc(C#N)nc4c3ccn4C3COC3)cc2C(F)(F)F)CC1`: 3.3 nM; `Cn1cnc2c(-c3ccc(OCCC4CCN(CC(=O)N5CCC(F)(F)C5)CC4)c(C(F)(F)F)c3)nc(C#N)nc21`: 2.4 nM.

`CN1CCC[C@H]1C(=O)N1CCC(CCOc2ccc(-c3nc(C#N)nc4c3ccn4CC3CCOC3)cc2C#N)CC1` (stereo partly drawn): the IC50 was 7.8 nM. Regarding `CC(C)N1CCC[C@H]1C(=O)N1CCC(CCOc2ncc(-c3nc(C#N)nc4c3ncn4C)cc2C(F)(F)F)CC1`, the IC50 was determined as 2.1 nM.

In turn, `CN1CCC[C@H]1C(=O)N1CCCC(COc2ccc(-c3nc(C#N)nc4c3ccn4C)cc2C(F)(F)F)C1` (stereo partly drawn) had an IC50 of 3.6 nM. Molecule `CN(C)C(=O)CN1CCC(CCOc2ncc(-c3nc(C#N)nc4c3ccn4C)cc2C(F)(F)F)CC1` came in with an IC50 of 2.2 nM. The molecule `N#Cc1nc(-c2ccc(OCCC3CCN(C(CF)CF)CC3)c(C#N)c2)c2ccn(CC3CCOC3)c2n1` (stereo not drawn) returned an IC50 of 8.9 nM.

As to `CCN1CCC(COc2ccc(-c3nc(C#N)nc4c3ccn4CC3CCOC3)cc2C(F)(F)F)CC1` (stereo not drawn), it took 2.8 nM to reach half-maximal inhibition (IC50).

`N#Cc1nc(-c2ccc(OCCC3CCNCC3)c(C#N)c2)c2ccn(CC3CCOC3)c2n1` (stereo not drawn): the IC50 came to 3.3 nM. Next, `Cn1ccc2c(-c3ccc(OCCC4CCNC4)c(C(F)(F)F)c3)nc(C#N)nc21` (stereo not drawn): 1.3 nM; `CCN1CCC(CCOc2ccc(-c3nc(C#N)nc4c3ncn4CC3CCOC3)cc2C(F)(F)F)CC1` (stereo not drawn): 2.2 nM; `CN1CCC[C@H]1C(=O)N1CCC(CCOc2ncc(-c3nc(C#N)nc4c3ncn4CC3CCOC3)cc2C(F)(F)F)CC1` (stereo partly drawn): 1.4 nM. Next, `CC(C)N1CCC(CCOc2ccc(-c3nc(C#N)nc4c3ccn4CC3CCOC3)cc2C#N)CC1` (stereo not drawn): 4.3 nM; `N#Cc1nc(-c2ccc(OCC3CCNCC3)c(C(F)(F)F)c2)c2ccn(CC3CCOC3)c2n1` (stereo not drawn): 1.9 nM; `Cn1ccc2c(-c3ccc(OCC4CCCNC4)c(C(F)(F)F)c3)nc(C#N)nc21` (stereo not drawn): 3.1 nM. The molecule `CN1CCC(C(=O)N2CCC(CCOc3ccc(-c4nc(C#N)nc5c4ncn5C)cc3C(F)(F)F)CC2)CC1` returned an IC50 of 2.7 nM.

Turning to `CCN1CCC(CCOc2ccc(-c3nc(C#N)nc4c3ccn4CCO)cc2C(F)(F)F)CC1`, the IC50 worked out at 2.3 nM. As to `CCN1CCC(CCOc2ncc(-c3nc(C#N)nc4c3ccn4CC3CCOCC3)cc2C(F)(F)F)CC1`, the IC50 stood at 3.2 nM.

Molecule `Cn1ccc2c(-c3ccc(OCCC4CCN(C(C)(C)C)CC4)c(C(F)(F)F)c3)nc(C#N)nc21` came in with an IC50 of 2 nM.

The molecule `N#Cc1nc(-c2ccc(OCCC3CCNCC3)c(C(F)(F)F)c2)c2ccn(C3CCOC3)c2n1` (stereo not drawn) came in with an IC50 of 2.8 nM. Next, `N#Cc1nc(-c2cnc(OCCC3CCNCC3)c(C(F)(F)F)c2)c2ccn(CC3CCOCC3)c2n1`: 3.5 nM; `Cn1ccc2c(-c3cnc(OCCC4CCNCC4)c(C(F)(F)F)c3)nc(C#N)nc21`: 2.5 nM; `Cn1cnc2c(-c3ccc(OCCC4CCN(CC(=O)N5CC[C@H](F)C5)CC4)c(C(F)(F)F)c3)nc(C#N)nc21`: 1.7 nM. The figure for `CN1CCC(N(C)C(=O)Cn2ccc3c(-c4ccc(OCCC5CCOCC5)c(C(F)(F)F)c4)nc(C#N)nc32)C1` (stereo not drawn) is 2.2 nM; for `CCN1CCC(CCOc2ccc(-c3nc(C#N)nc4c3ccn4CC)cc2C(F)(F)F)CC1` it is 3.7 nM. The molecule `N#Cc1nc(-c2ccc(OCCC3CCNCC3)c(C(F)(F)F)c2)c2ccn(C3CCOCC3)c2n1` returned an IC50 of 2.6 nM. The figure for `CCN1CCC(CCOc2ncc(-c3nc(C#N)nc4c3ncn4CC3CCOC3)cc2C(F)(F)F)CC1` (stereo not drawn) is 2 nM; for `Cn1cnc2c(-c3cnc(OCCC4CCN(C5CCC5)CC4)c(C(F)(F)F)c3)nc(C#N)nc21` it is 2 nM. Next, `CCN1CCC(CCOc2ccc(-c3nc(C#N)nc4c3ccn4C)cc2C(F)(F)F)C1` (stereo not drawn): 2.1 nM; `Cn1cnc2c(-c3ccc(OCCC4CCN(CC(=O)N5CCC(C#N)CC5)CC4)c(C(F)(F)F)c3)nc(C#N)nc21`: 2.1 nM. The figure for `CN(C)C(=O)CN1CCCC(COc2ccc(-c3nc(C#N)nc4c3ccn4C)cc2C(F)(F)F)C1` (stereo not drawn) is 4 nM; for `CN1CCC[C@H]1C(=O)N1CCC(COc2ccc(-c3nc(C#N)nc4c3ccn4CC3CCOC3)cc2C(F)(F)F)CC1` (stereo partly drawn) it is 2.2 nM. Consider `CCn1ccc2c(-c3ccc(OCCC4CCNCC4)c(C(F)(F)F)c3)nc(C#N)nc21`, for which the IC50 worked out at 3 nM. In turn, `N#Cc1nc(-c2ccc(OCCC3CCN(CCO)CC3)c(C(F)(F)F)c2)c2ccn(CC3CCCO3)c2n1` (stereo not drawn) returned an IC50 of 3.2 nM. Next, `CN1CCC[C@@H]1C(=O)N1CCC(CCOc2ncc(-c3nc(C#N)nc4c3ncn4C)cc2C(F)(F)F)CC1`: 1 nM; `CN1CCC[C@@H]1C(=O)N1CC[C@@H](OCCOc2ncc(-c3nc(C#N)nc4c3ccn4C)cc2C(F)(F)F)C1`: 2.4 nM.
